# From patent publication US7795226B2, “Control of radiation injury” (Biotempt B.V., priority 2006, dated 2010)
# Experiments:
# gamma-irradiated mice [1] = conditions: cited from earlier work; for protection against gamma-irradiation (in words): mouse, in vivo
# [2] = tested on: BALB/c mice exposed whole body to 10 Gy 137Cs-γ-irradiation; test: Whole body γ-irradiation (10 Gy), peptide 1.5 hours after irradiation; format: in vivo; conditions: 10 mg/kg i.p. 1.5 hours after 10 Gy; for Watery eyes / Weight loss: affected/total; for Mortality: dead/total
# Method: (§1) In the first experiment, 12-week-old female BALB/c mice were treated intraperitoneally with a single injection of either PBS (n=9) or with a peptide (LQGV (SEQ ID NO:117), VLPALP (SEQ ID NO:140), LPGCPRGVNPVVS (SEQ ID NO:114), MTRVLQGVLPALPQVVC (SEQ ID NO:113); n=8, 10 mg/kg). One and a half hours after the treatment, mice were exposed whole body to a single dose of 10 Gy ^137Cs-γ-irradiation. In the second experiment, 12-week-old female BALB/c mice were first exposed whole body to a single dose of 10 Gy ^137Cs-γ-irradiation and then 1.5 hours after the irradiation treated intraperitoneally with a single injection of either PBS (n=9) or with a peptide (n=8 or 9, 10 mg/kg).
# [3] = tested on: BALB/c mice exposed whole body to 10 Gy 137Cs-γ-irradiation; test: Whole body γ-irradiation (10 Gy), peptide 1.5 hours before irradiation; format: in vivo; conditions: 10 mg/kg i.p. 1.5 hours before 10 Gy; for Watery eyes / Weight loss: affected/total; for Mortality: dead/total
# Method: as §1
# radiation exposure = conditions: in vivo; cited from earlier work
# gamma-irradiated mice [4] = conditions: cited from earlier work
compound,measurement,setting,value
"C[C@]12CC[C@H]3[C@@H](CC=C4C[C@@H](O)CC[C@@]43C)[C@@H]1CC[C@@H]2O [Peptide 5-AED, 5-androstenediol]",dose reduction factor,"gamma-irradiated mice [1]; sc administration prior to WBI, from probit survival curves",1.3
C[C@]12CCC(=O)C=C1CC[C@@H]1[C@@H]2CC[C@]2(C)C(=O)CC[C@@H]12 [androstenedione],protection against gamma-irradiation (in words),gamma-irradiated mice [1],No protection was observed
"C[C@]12CC[C@H](O)CC1=CC[C@@H]1[C@@H]2CC[C@]2(C)C(=O)CC[C@@H]12 [DHEA, dehydroepiandrosterone]",protection against gamma-irradiation (in words),gamma-irradiated mice [1],No protection was observed
"C[C@]12CC[C@H]3[C@@H]([C@@H](O)C=C4C[C@@H](O)CC[C@@]43C)[C@@H]1CC[C@@H]2O [AET, 5-androstene-3B,7B, 17B-triol]",protection against gamma-irradiation (in words),gamma-irradiated mice [1],No protection was observed
MTRVLQGVLPALPQVVC [residues 41-57 of loop 2 of the beta-subunit of hCG],Watery eyes,[2]; day 0 after irradiation,0/9
same,Weight loss,[2]; day 0 after irradiation,0/9
same,Mortality,[2]; day 0 after irradiation,0/9
same,Mortality,[2]; day 3 after irradiation,0/9
same,Watery eyes,[2]; day 4 after irradiation,0/9
same,Weight loss,[2]; day 4 after irradiation,9/9
same,Mortality,[2]; day 4 after irradiation,0/9
same,Mortality,[2]; day 5 after irradiation,0/9
same,Mortality,[2]; day 6 after irradiation,5/9
same,Mortality,[2]; day 7 after irradiation,9/9
same,Watery eyes,[3]; day 0 after irradiation,0/8
same,Weight loss,[3]; day 0 after irradiation,0/8
same,Mortality,[3]; day 0 after irradiation,0/8
same,Mortality,[3]; day 3 after irradiation,0/8
same,Watery eyes,[3]; day 4 after irradiation,1/8
same,Weight loss,[3]; day 4 after irradiation,1/8
same,Mortality,[3]; day 4 after irradiation,0/8
same,Mortality,[3]; day 5 after irradiation,0/8
same,Mortality,[3]; day 6 after irradiation,7/8
same,Mortality,[3]; day 7 after irradiation,8/8
"O=C(O)c1ccc(/C=C/S(=O)(=O)Cc2ccc(Cl)cc2)cc1 [ON-01210, 4-carboxystyrl-4-chlorobenzylsulfone]",radiation protection activity (in words),radiation exposure,protective only if it is given pre-radiation exposure
O=c1c(-c2ccc(O)cc2)coc2cc(O)cc(O)c12 [genisteine],Dose reduction Factor (DRF),"gamma-irradiated mice [4]; best dose 200 mg/kg, 24 hours before irradiation",1.16
same,radioprotection (in words),gamma-irradiated mice [4]; given one hour prior to whole body irradiation,no radioprotection was observed
LPGCPRGVNPVVS,Watery eyes,[2]; day 0 after irradiation,0/8
same,Weight loss,[2]; day 0 after irradiation,0/8
same,Mortality,[2]; day 0 after irradiation,0/8
same,Mortality,[2]; day 3 after irradiation,0/8
same,Watery eyes,[2]; day 4 after irradiation,0/8
same,Weight loss,[2]; day 4 after irradiation,8/8
same,Mortality,[2]; day 4 after irradiation,0/8
same,Mortality,[2]; day 5 after irradiation,0/8
same,Mortality,[2]; day 6 after irradiation,6/8
same,Mortality,[2]; day 7 after irradiation,8/8
same,Watery eyes,[3]; day 0 after irradiation,0/8
same,Weight loss,[3]; day 0 after irradiation,0/8
same,Mortality,[3]; day 0 after irradiation,0/8
same,Mortality,[3]; day 3 after irradiation,0/8
same,Watery eyes,[3]; day 4 after irradiation,1/8
same,Weight loss,[3]; day 4 after irradiation,8/8
same,Mortality,[3]; day 4 after irradiation,0/8
same,Mortality,[3]; day 5 after irradiation,0/8
same,Mortality,[3]; day 6 after irradiation,4/8
same,Mortality,[3]; day 7 after irradiation,8/8
